From patent US11479546B2, “Antimalarial hexahydropyrimidine analogues” (UCB Biopharma SRL, priority 2018, dated 2022) come the findings set out here.

pIC50: −log10 of the molar value.

The assay concerns Plasmodium falciparum 3D7. Put plainly: P. falciparum 3D7 asexual blood stage assay, Assay Procedure Version 1 (SYBR green readout). Type of assay: cell-based. The following applies: 3D7, Erythrocyte, Version 1 of the assay procedure (no asterisk), 72 h incubation in infected erythrocytes, 10,000 nM to 0.51 nM. In a few lines:
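Erythrocytes at 5% haematocrit, 0.5% parasitaemia, exposed 72 h at 37° C (1% O2, 3% CO2) to 10-point 3-fold titrations, 10,000–0.51 nM final in 0.5% DMSO. SYBR green in lysis buffer overnight, fluorescence 485/528 nm; % inhibition versus controls, EC50 from 4-parameter fit.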
Consider `Cc1ncc(Nc2cccc([C@]3(C)CC(=O)N(C4CCOCC4)C(=N)N3)c2Cl)cn1` [Example 19, (6S)-6-{2-Chloro-3-[(2-methyl-pyrimidin-5-yl)amino]phenyl}-2-imino-6-methyl-3-(tetrahydro-pyran-4-yl)hexahydropyrimidin-4-one], for which the pIC50 was 6.00.
Take `C[C@@]1(c2cccc(Nc3ccccc3C(F)(F)F)c2Cl)CC(=O)N(C2CCOCC2)C(=N)N1` [Example 16, (6S)-6-{2-Chloro-3-[2-(trifluoromethyl)anilino]-phenyl}-2-imino-6-methyl-3-(tetrahydropyran-4-yl)-hexahydropyrimidin-4-one]: the pIC50 was 5.64.
Then `C[C@@]1(c2cccc(Nc3ccc(Cl)cc3)c2Cl)CC(=O)N(C2CCOCC2)C(=N)N1` [Example 162, (6S)-6-[2-Chloro-3-(4-chloro-anilino)phenyl]-2-imino-6-methyl-3-(tetrahydropyran-4-yl)hexahydropyrimidin-4-one], with 6.04.
